In assay [1] the test system is Abl^FK (SH3-SH2 module and kinase domain). Put plainly: NMR. Particulars: GNF5 displaces imatinib from the myristoyl pocket. Also noted: species or system human.
A further assay has as its target Abl^Y272H/A363V. The assay is described as follows: Kinase assay, phosphorylation of CrkII, Abl Y272H/A363V. It counts as biochemical, human.

As for `O=C(NCCO)c1cccc(-c2cc(Nc3ccc(OC(F)(F)F)cc3)ncn2)c1` [GNF5], in assay [1], the “effect on equilibrium, GNF5 added to imatinib-bound Abl^FK” value is reported as “shifts the population almost fully towards the inhibited state”. Further, the “kinase activity of Abl^Y272H/A363V in the presence of both imatinib and GNF5” value at Abl^Y272H/A363V (2 mM ATP) was “strongly suppressed”.
For the compound `Cc1ccc(NC(=O)c2ccc(CN3CCN(C)CC3)cc2)cc1Nc1nccc(-c2cccnc2)n1` [imatinib], at Abl^Y272H/A363V (2 mM ATP, compared with Abl^Y272H/L359A), the “kinase activity of Abl^Y272H/A363V in the presence of imatinib” value is on record as “significantly higher than the activity of Abl^Y272H/L359A”. The “effect on catalytic activity of Abl^Y272H/A363V at high ATP” value in the assay on Abl^Y272H/A363V (20 mM ATP) is “significantly increases the catalytic activity”.

The record behind these values is publication PMC8752476 (Journal of molecular biology, 2021).
